# In patent US7470794B2, “Preparation and use of ortho-sulfonamido aryl hydroxamic acids as matrix metalloproteinase inhibitors” (Wyeth, priority 2000, dated 2008):
# Read-outs that look alike come from different tables or passages of the source.
# Tests used:
# MMP-1 = molecular target: T1, MMP-1 (Homo sapiens, UniProt P03956); experiment: MMP-1 inhibition (thiopeptide or fluorescent peptide substrate assay); assay type: biochemical
# T1 sequence (P03956 100-469): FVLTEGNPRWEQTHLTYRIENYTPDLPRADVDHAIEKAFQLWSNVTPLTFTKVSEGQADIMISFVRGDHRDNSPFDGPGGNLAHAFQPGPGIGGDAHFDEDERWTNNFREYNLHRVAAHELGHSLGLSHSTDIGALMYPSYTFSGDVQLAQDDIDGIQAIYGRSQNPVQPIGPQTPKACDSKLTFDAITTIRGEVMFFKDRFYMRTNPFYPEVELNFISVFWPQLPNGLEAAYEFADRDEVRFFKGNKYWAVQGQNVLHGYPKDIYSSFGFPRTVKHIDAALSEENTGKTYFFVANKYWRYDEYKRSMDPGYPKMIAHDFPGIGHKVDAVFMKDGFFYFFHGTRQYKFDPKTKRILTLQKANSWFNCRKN
# Description: (§1) These assays are based on the cleavage of a thiopeptide substrates such as Ac-Pro-Leu-Gly(2-mercapto-4-methyl-pentanoyl)-Leu-Gly-OEt by the matrix metalloproteinases MMP-1, MMP-13 (collagenases) or MMP-9 (gelatinase), which results in the release of a substrate product that reacts colorimetrically with DTNB (5,5′-dithiobis(2-nitro-benzoic acid)). The enzyme activity is measured by the rate of the color increase. The thiopeptide substrate is made up fresh as a 20 mM stock in 100% DMSO and the DTNB is dissolved in 100% DMSO as a 100 mM stock and stored in the dark at room temperature. Both the substrate and DTNB are diluted together to 1 mM with substrate buffer (50 mM HEPES pH 7.5, 5 mM CaCl2) before use. The stock of enzyme is diluted with assay buffer (50 mM HEPES, pH 7.5, 5 mM CaCl2, 0.02% Brij) to the desired final concentration. The assay buffer, enzyme, vehicle or inhibitor, and DTNB/substrate are added in this order to a 96 well plate (total reaction volume of 200 μl) and the increase in color is monitored spectrophotometrically for 5 minutes at 405 nm on a plate reader and the increase in color over time is plotted as a linear line.
# (§2) Alternatively, a fluorescent peptide substrate is used. In this assay, the peptide substrate contains a fluorescent group and a quenching group. Upon cleavage of the substrate by an MMP, the fluorescence that is generated is quantitated on the fluorescence plate reader. The assay is run in HCBC assay buffer (50 mM HEPES, pH 7.0, 5 mM Ca^+2, 0.02% Brij, 0.5% Cysteine), with human recombinant MMP-1, MMP-9, or MMP-13. The substrate is dissolved in methanol and stored frozen in 1 mM aliquots. For the assay, substrate and enzymes are diluted in HCBC buffer to the desired concentrations. Compounds are added to the 96 well plate containing enzyme and the reaction is started by the addition of substrate. The reaction is read (excitation 340 nm, emission 444 nm) for 10 min. and the increase in fluorescence over time is plotted as a linear line.
# (§3) For either the thiopeptide or fluorescent peptide assays, the slope of the line is calculated and represents the reaction rate. The linearity of the reaction rate is confirmed (r^2>0.85). The mean (x±sem) of the control rate is calculated and compared for statistical significance (p<0.05) with drug-treated rates using Dunnett's multiple comparison test. Dose-response relationships can be generated using multiple doses of drug and IC50 values with 95% CI are estimated using linear regression.
# MMP-9 = MMP-9 (Homo sapiens, UniProt P14780); experiment: MMP-9 inhibition (thiopeptide or fluorescent peptide substrate assay); assay type: biochemical
# Description: as §1, §2, §3
# MMP-13 = MMP-13 (Homo sapiens, UniProt P45452); experiment: MMP-13 inhibition (thiopeptide or fluorescent peptide substrate assay); assay type: biochemical
# Description: as §1, §2, §3
# [1] = molecular target: T2, tumor necrosis factor-alpa converting enzyme (TACE; Immunex) (Homo sapiens, UniProt P78536); experiment: TACE inhibition (fluorescent peptidyl substrate assay); assay type: biochemical; conditions: 1 μM test compound
# T2 construct: purchased Immunex
# Description: Using 96-well black microtiter plates, each well receives a solution composed of 10 μL tumor necrosis factor-alpa converting enzyme (TACE; Immunex, final concentration 1 μg/mL), 70 μL Tris buffer, pH 7.4 containing 10% glycerol (final concentration 10 mM), and 10 μL of test compound solution in DMSO (final concentration 1 μM, DMSO concentration <1%) and incubated for 10 minutes at room temperature. The reaction is initiated by addition of a fluorescent peptidyl substrate (final concentration 100 μM) to each well and then shaking on a shaker for 5 sec.
# The reaction is read (excitation 340 nm, emission 420 nm) for 10 min. and the increase in fluorescence over time is plotted as a linear line. The slope of the line is calculated and represents the reaction rate.
# as §3, with “The” for “For either the thiopeptide or fluorescent peptide assays, the slope of the line is calculated and represents the reaction rate. The”, “generate” for “generated”
# MMP-9, sequence (P14780 94-707): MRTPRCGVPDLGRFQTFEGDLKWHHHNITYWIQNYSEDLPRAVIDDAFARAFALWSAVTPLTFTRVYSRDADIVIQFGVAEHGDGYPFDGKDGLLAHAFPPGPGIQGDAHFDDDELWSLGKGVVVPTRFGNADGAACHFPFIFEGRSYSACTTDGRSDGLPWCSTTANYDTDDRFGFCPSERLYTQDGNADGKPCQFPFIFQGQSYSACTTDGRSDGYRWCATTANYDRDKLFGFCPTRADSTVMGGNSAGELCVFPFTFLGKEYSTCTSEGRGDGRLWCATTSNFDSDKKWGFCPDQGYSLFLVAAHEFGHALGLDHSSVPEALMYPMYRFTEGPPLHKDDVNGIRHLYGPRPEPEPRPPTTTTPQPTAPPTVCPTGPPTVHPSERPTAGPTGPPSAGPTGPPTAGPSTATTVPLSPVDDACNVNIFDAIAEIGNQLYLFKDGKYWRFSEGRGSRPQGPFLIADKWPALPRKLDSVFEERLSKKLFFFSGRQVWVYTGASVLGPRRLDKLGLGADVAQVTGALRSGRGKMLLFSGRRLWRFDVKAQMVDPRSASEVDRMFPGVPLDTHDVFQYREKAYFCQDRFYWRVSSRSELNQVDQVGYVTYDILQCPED
# T2 sequence (P78536 215-824): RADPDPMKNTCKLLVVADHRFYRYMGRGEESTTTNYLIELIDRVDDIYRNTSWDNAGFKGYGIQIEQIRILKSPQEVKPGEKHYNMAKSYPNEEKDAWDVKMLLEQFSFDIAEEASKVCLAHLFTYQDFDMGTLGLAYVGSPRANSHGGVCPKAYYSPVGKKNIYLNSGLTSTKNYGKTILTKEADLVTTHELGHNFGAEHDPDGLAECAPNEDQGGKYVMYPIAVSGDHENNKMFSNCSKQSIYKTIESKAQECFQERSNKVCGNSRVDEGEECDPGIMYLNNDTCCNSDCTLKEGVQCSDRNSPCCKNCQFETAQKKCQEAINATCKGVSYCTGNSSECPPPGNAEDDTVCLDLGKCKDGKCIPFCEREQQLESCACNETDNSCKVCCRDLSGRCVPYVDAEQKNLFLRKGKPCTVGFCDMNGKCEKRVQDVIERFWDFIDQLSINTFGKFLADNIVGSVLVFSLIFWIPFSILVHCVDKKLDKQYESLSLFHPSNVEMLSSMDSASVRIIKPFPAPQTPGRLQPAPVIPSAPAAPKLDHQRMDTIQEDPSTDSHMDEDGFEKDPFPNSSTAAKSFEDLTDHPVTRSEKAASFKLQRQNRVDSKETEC
Compound,IC50 (MMP-1),IC50 (MMP-9),IC50 (MMP-13),inhibition at 1 µM [1],melting point,IC50 (MMP-1; cells printed in μM),TACE % inhibition @ 1 μM [1]
"Cc1cccc(C(=O)NO)c1N(C)S(=O)(=O)c1ccc(OCCNC(=O)c2ccc3ccccc3n2)cc1 [Example 4, Quinoline-2-carboxylic acid(2-{4-[(2-hydroxycarbamoyl-6-methyl-phenyl)-methyl-sulfamoyl]-phenoxy}-ethyl)-amide]",4.24 µM,337 nM,73 nM,19.9%,114 to 121 °C,,
"Cc1cccc(C(=O)NO)c1N(C)S(=O)(=O)c1ccc(OCCCNC(=O)c2cc3ccccc3o2)cc1 [Example 6, Benzofuran-2-carboxylic acid(3-{4-[(2-hydroxycarbamoyl-6-methyl-phenyl)-methyl-sulfamoyl]-phenoxy}-propyl)-amide]",5.45 µM,510 nM,4.9 nM,21.3%,148 to 150 °C,,
"Cc1cccc(C(=O)NO)c1N(C)S(=O)(=O)c1ccc(OCCCCNC(=O)c2cc3ccccc3o2)cc1 [Example 8, Benzofuran-2-carboxylic acid(4-{4-[(2-hydroxycarbamoyl-6-methyl-phenyl)-methyl-sulfamoyl]-phenoxy}-butyl)-amide]",5.12 µM,84 nM,467 nM,43.6%,131 to 134 °C,,
"Cc1cccc(C(=O)NO)c1N(C)S(=O)(=O)c1ccc(OCCCNC(=O)c2cc3ccccc3[nH]2)cc1 [Example 10, 1H-Indole-2-carboxylic acid(3-{4-[(2-hydroxycarbamoyl-6-methyl-phenyl)-methyl-sulfamoyl]-phenoxy}-propyl)-amide]",5.64 µM,305 nM,178 nM,35.7%,144 to 146 °C,,
"Cc1cccc(C(=O)NO)c1N(C)S(=O)(=O)c1ccc(OCCNC(=O)c2cc3ccccc3s2)cc1 [Example 12, Benzo[b]thiophene-2-carboxylic acid(2-{4-[(2-hydroxycarbamoyl-6-methyl-phenyl)-methyl-sulfamoyl]-phenoxy}-ethyl)-amide]",,914 nM,595 nM,15.2%,169 to 171 °C,> 10 µM,
"Cc1cccc(C(=O)NO)c1N(C)S(=O)(=O)c1ccc(OCCCNC(=O)c2ccc3c(c2)OCO3)cc1 [Example 14, N-{3-[4-({2-[(hydroxyamino)carbonyl]-6, N-dimethylanilino}sulfonyl)phenoxy]propyl}-1,3-benzodioxole-5-carboxamide]",1.48 µM,63.6 nM,110 nM,42.1%,102 to 112 °C,,
"Cc1cccc(C(=O)NO)c1N(C)S(=O)(=O)c1ccc(OCCCNC(=O)c2cc3ccccc3s2)cc1 [Example 27, N-{3-[4-({2-[(Hydroxyamino)carbonyl]-6-dimethylanilino}-sulfonyl)phenoxy]propyl}-1-benzothiophene-2-carboxamide]",,1390 nM,43 nM,22%,100 to 105 °C,30 µM,
"Cc1cc(C)c(N(Cc2ccccc2)S(=O)(=O)c2ccc(OCCNC(=O)c3cc4ccccc4o3)cc2)c(C(=O)NO)c1 [Example 31, Benzofuran-2-carboxylic acid(2-{4-[benzyl-(2-hydroxycarbamoyl-4,6-dimethyl-phenyl)-sulfamoyl]-phenoxy}-ethyl)-amide]",,,17.1 nM,18.9%,,,
"N-{4-[4-({2-[(hydroxyamino)carbonyl]-6, N-dimethylanilino}sulfonyl)phenoxy]butyl}-1,3-benzodioxole-5-carboxamide [Example 16]",0.999 µM,55.7 nM,83.5 nM,,,,27.4%
